Measurements from patent publication US20200002377A1, “COMPOUNDS USEFUL FOR THE TREATMENT AND/OR CARE OF THE SKIN, HAIR, NAILS AND/OR MUCOUS MEMBRANES” (LUBRIZOL ADVANCED MATERIALS, INC., priority 2016, published 2020).
Residues, ends and D or L forms follow the SMILES beside them. *: point of attachment. Palmitoyl = CCCCCCCCCCCCCCCC(=O)*; NHhexadecyl = CCCCCCCCCCCCCCCCN*; Myristoyl = CCCCCCCCCCCCCC(=O)*; NHHex = CCCCCCN*

What was measured:
[1] = system: Nuclear Factor Kappa B subunit 1 (NFKB1); assay: Innate immune response gene expression in HEKa, real time PCR array; type: cell-based, human; conditions: 50 μg/ml, 24 h
Procedure: HEKa cells (Life Technologies) are seeded at 6.0×10^5 cells/well in 6-well plates and incubated in culture medium Epillfe™ with defined Growth Supplement (EDGS, Life Technologies), at 37° C. in a water-saturated atmosphere of 95% air and 5% CO2. After 24 hours of incubation under these conditions, medium is removed and cells are incubated with 50 μg/ml (w/v) of a peptide of the invention (see Table 16) in fresh culture medium keeping two wells where HEKa cells are incubated with medium only (basal conditions) at 37° C. and 5% CO2.
After 24 h of incubation, the cells are lysed directly in the wells following the protocol described on the RNeasy™ Mini kit (Qiagen) according to the manufacturer's protocol. The lysed cells are homogenized and the RNases are inactivated. The genomic DNA is removed from the samples by using gDNA Eliminator spin columns (Qiagen). Then the samples are passed through special RNA binding columns (Qiagen) and, after several microcentrifugation washes to eliminate contaminants and impurities, the purified RNA is eluted with 50 μl of ultrapure water. Quantification and analysis of purity of RNA samples are performed after RNA elution with a biophotometer (Eppendorf). 1 μg of high-quality RNA is retrotranscribed with iScript™ advanced (BioRad) in a final volume of 20 μl·Complete reaction mix is incubated in a thermal cycler (Eppendorf) at 42° C. for 30 minutes, and the reactions are stopped at 85° C. for 5 minutes. Complementary DNA is amplified by qPCR in a real-time PCR thermocycler (BioRad) using SYBR®Green supermix (BioRad) and a customized plate for use with SYBR®Green (BioRad). SYBR®Green binds to double-stranded DNA molecules and emits fluorescence which is quantified and is proportional to the amount of the product in the PCR reaction. Cycling conditions in BioRad CFX96™ instrument are 95° C. for 3 minutes, followed by 40 cycles of denaturing at 95° C. for 5 seconds, annealing and elongation at 60° C. for 30 seconds. GAPDH (Glyceraldehyde 3-phosphate dehydrogenase), TBP (TATA box binding protein) and HRPT1 (hypoxanthine phosphoribosyltransferase 1) are used as endogenous controls. Fold change relative to the expression of the sample genes and reference genes is calculated using normalized expression (ΔΔ(Ct)) method with default threshold values using CFX Manager Software (BioRad).
Genes analyzed are Chemokine (C-C motif) Ligand 5 (CCL5), Myeloid Differentiation primary response gene 88 (MyD88), Nuclear Factor Kappa B subunit 1 (NFKB1) and interferon Regulatory Factor 3 (IRF3).

[2] = system: Staphylococcus epidermidis; assay: Adherence of Staphylococcus epidermidis in keratinocytes (HaCaT) in competition with S. aureus bioparticles; type: cell-based; conditions: 50 μg/ml, 24 h, basal = 0
Procedure: After that treatment, cells are washed with phosphate-buffered saline (PBS, Sigma) and are then incubated with a solution of Staphylococcus epidermidis (ATCC®12228™, Culture Collections) treated with green-fluorescence calcein AM (Life technologic) and Alexa Fluor 594™ Bioparticles Staphylococcus aureus (ThermoFisher) in PBS for 30 minutes at 37° C. and protected from light. At the end of the incubation period, cells are washed with PBS and fixed in 4% (v/v) paraformaldehyde (PFA, Sigma) for 30 minutes. After rinsing with PBS, the nuclei are stained with Hoechst 33342, trihydrochloride trihydrate (ThermoFisher) in PBS for 10 minutes before analysis.
Cellular imaging is performed by fluorescence microscopy using the Operetta® High Content Imaging System (PerkinElmer). From each fluorescence image, Staphylococcus epidermidis is quantified as a number of spots and normalized against the number of keratinocyte nuclei and the total bacteria number (understood as the addition of detected S. epidermidis spots and S. aureus bioparticles). Each value obtained is normalized respect to basal conditions (non-treated keratinocytes). An image is taken in three different fields per well. 12 representative images from each condition are analyzed with Harmony software (PerkinElmer).
The normalized percentage of Staphylococcus epidermidis respect to basal conditions in treated keratinocytes is represented in Table 17.

Row | Molecule | NFKB1 fold induction respect to basal conditions [1] | S. epidermidis (%), normalized percentage respect to basal conditions [2]
1 | CCCCCCCCCCCCCC(=O)N[C@@H](CCC(=O)O)C(=O)N[C@@H](CCC(=O)O)C(=O)N[C@@H](CCSC)C(=O)N[C@@H](CCC(N)=O)C(=O)N[C@@H](CCCNC(=N)N)C(=O)N[C@@H](CCCNC(=N)N)C(N)=O [PEP-5, Myr-Glu-Glu-Met-Gln-Arg-Arg-NH2] (Myristoyl-EEMQRR-NH2) | 2.64 | 27.52%
2 | CCCCCCCCCCCCCCCC(=O)N[C@@H](CCC(=O)O)C(=O)N[C@@H](CCC(=O)O)C(=O)N[C@@H](CCSC)C(=O)N[C@@H](CCC(N)=O)C(=O)N[C@@H](CCCNC(=N)N)C(=O)N[C@@H](CCCNC(=N)N)C(N)=O [PEP-6, Palm-Glu-Glu-Met-Gln-Arg-Arg-NH2] (Palmitoyl-EEMQRR-NH2) | 2.62 | 29.75%
3 | CCCCCCCCCCCCCCCCNC(=O)[C@H](CCCNC(=N)N)NC(=O)[C@H](CCCNC(=N)N)NC(=O)[C@H](CCC(N)=O)NC(=O)[C@H](CCSC)NC(=O)[C@H](CCC(=O)O)NC(=O)[C@H](CCC(=O)O)NC(C)=O [PEP-7, Ac-Glu-Glu-Met-Gln-Arg-Arg-NHC16H33] (Ac-EEMQRR-NHhexadecyl) | 3.09 | 11.43%
4 | CCCCCCCCCCCCCCCC(=O)N[C@@H](CCC(=O)O)C(=O)N[C@@H](CCC(=O)O)C(=O)N[C@@H](CCSC)C(=O)N[C@@H](CCC(N)=O)C(=O)N[C@@H](CCCNC(=N)N)C(=O)N[C@@H](CCCNC(=N)N)C(=O)N[C@@H](C)C(=O)N[C@@H](CC(=O)O)C(N)=O [PEP-27, Palm-Glu-Glu-Met-Gln-Arg-Arg-Ala-Asp-NH2] (Palmitoyl-EEMQRRAD-NH2) | 2.76 | 27.62%
5 | CCCCCCCCCCCCCCCC(=O)N[C@@H](CCC(=O)O)C(=O)N[C@@H](CCC(=O)O)C(=O)N[C@@H](CCSC)C(=O)N[C@@H](CCC(N)=O)C(=O)N[C@@H](CCCNC(=N)N)C(=O)N[C@@H](CCCNC(=N)N)C(=O)N[C@@H](C)C(=O)N[C@@H](CC(N)=O)C(N)=O [PEP-28, Palm-Glu-Glu-Met-Gln-Arg-Arg-Ala-Asn-NH2] (Palmitoyl-EEMQRRAN-NH2) | 2.65 | 39.68%
6 | CCCCCCCCCCCCCC(=O)N[C@@H](CCC(=O)O)C(=O)N[C@@H](CCC(=O)O)C(=O)N[C@@H](CCSC)C(=O)N[C@@H](CCC(N)=O)C(=O)N[C@@H](CCCNC(=N)N)C(=O)N[C@@H](CCCNC(=N)N)C(=O)N[C@@H](C)C(=O)N[C@@H](CCC(=O)O)C(N)=O [PEP-29, Myr-Glu-Glu-Met-Gln-Arg-Arg-Ala-Glu-NH2] (Myristoyl-EEMQRRAE-NH2) | 2.72 | 33.02%
7 | CCCCCCCCCCCCCCCC(=O)N[C@@H](CCC(=O)O)C(=O)N[C@@H](CCC(=O)O)C(=O)N[C@@H](CCSC)C(=O)N[C@@H](CCC(N)=O)C(=O)N[C@@H](CCCNC(=N)N)C(=O)N[C@@H](CCCNC(=N)N)C(=O)N[C@@H](C)C(=O)N[C@@H](CC(N)=O)C(=O)O [PEP-33, Palm-Glu-Glu-Met-Gln-Arg-Arg-Ala-Asn-OH] (Palmitoyl-EEMQRRAN-OH) | 2.63 | 58.74%
8 | CCCCCCNC(=O)[C@H](CC(=O)O)NC(=O)[C@H](C)NC(=O)[C@H](CCCNC(=N)N)NC(=O)[C@H](CCCNC(=N)N)NC(=O)[C@H](CCC(N)=O)NC(=O)[C@H](CCSC)NC(=O)[C@H](CCC(=O)O)NC(=O)[C@H](CCC(=O)O)NC(C)=O [PEP-34, Ac-Glu-Glu-Met-Gln-Arg-Arg-Ala-Asp-NHC6H13] (Ac-EEMQRRAD-NHHex) | 2.59 | 61.59%
9 | CCCCCCCCCCCCCCCCNC(=O)[C@H](CC(=O)O)NC(=O)[C@H](C)NC(=O)[C@H](CCCNC(=N)N)NC(=O)[C@H](CCCNC(=N)N)NC(=O)[C@H](CCC(N)=O)NC(=O)[C@H](CCSC)NC(=O)[C@H](CCC(=O)O)NC(=O)[C@H](CCC(=O)O)NC(C)=O [PEP-35, Ac-Glu-Glu-Met-Gln-Arg-Arg-Ala-Asp-NHC16H33] (Ac-EEMQRRAD-NHhexadecyl) | 2.79 | 90.22%
10 | CCCCCCNC(=O)[C@H](CC(=O)O)NC(=O)[C@H](C)NC(=O)[C@H](CCCNC(=N)N)NC(=O)[C@H](CCCNC(=N)N)NC(=O)[C@H](CCC(N)=O)NC(=O)[C@H](CCSC)NC(=O)[C@H](CCC(=O)O)NC(=O)[C@@H](N)CCC(=O)O [PEP-36, H-Glu-Glu-Met-Gln-Arg-Arg-Ala-Asp-NHC6H13] (H-EEMQRRAD-NHHex) | 2.53 | 29.93%
11 | CCCCCCCCCCCCCCCC(=O)N[C@@H](CCC(=O)O)C(=O)N[C@@H](CCC(=O)O)C(=O)N[C@@H](CCSC)C(=O)N[C@@H](CCC(N)=O)C(=O)N[C@@H](CCCNC(=N)N)C(=O)N[C@@H](Cc1c[nH]cn1)C(N)=O [PEP-58, Palm-Glu-Glu-Met-Gln-Arg-His-NH2] (Palmitoyl-EEMQRH-NH2) | 1.87 | –
12 | CCCCCCCCCCCCCCCC(=O)N[C@@H](CCC(=O)O)C(=O)N[C@@H](CCC(=O)O)C(=O)N[C@@H](CCSC)C(=O)N[C@@H](CCC(N)=O)C(=O)N[C@@H](CCCNC(=N)N)C(=O)N[C@@H](CCCCN)C(N)=O [PEP-59, Palm-Glu-Glu-Met-Gln-Arg-Lys-NH2] (Palmitoyl-EEMQRK-NH2) | 1.77 | 4.63%
13 | CCCCCCNC(=O)[C@H](CCCNC(=N)N)NC(=O)[C@H](CCCNC(=N)N)NC(=O)[C@H](CCC(N)=O)NC(=O)[C@H](CCSC)NC(=O)[C@H](CCC(=O)O)NC(=O)[C@H](CCC(=O)O)NC(C)=O [PEP-64, Ac-Glu-Glu-Met-Gln-Arg-Arg-NHC6H13] (Ac-EEMQRR-NHHex) | 1.75 | –
14 | CCCCCCNC(=O)[C@H](CCCNC(=N)N)NC(=O)[C@H](CCCNC(=N)N)NC(=O)[C@H](CCC(N)=O)NC(=O)[C@H](CCSC)NC(=O)[C@H](CCC(=O)O)NC(=O)[C@@H](N)CCC(=O)O [PEP-65, H-Glu-Glu-Met-Gln-Arg-Arg-NCH6H13] (H-EEMQRR-NHHex) | 2.41 | –
15 | Ac-EELQRR-OH [PEP-63, Ac-Glu-Glu-Leu-Gln-Arg-Arg-OH] | 1.50 | –
16 | Ac-EEMQRH-NH2 [PEP-53, Ac-Glu-Glu-Met-Gln-Arg-His-NH2] | 3.37 | –
17 | Ac-EEMQRRAE-OH [PEP-30, Ac-Glu-Glu-Met-Gln-Arg-Arg-Ala-Glu-OH] | 2.53 | –
18 | Ac-EEMQRRV-NH2 [PEP-44, Ac-Glu-Glu-Met-Gln-Arg-Arg-Val-NH2] | 1.24 | –
19 | Ac-Glu-Glu-Leu-Gln-Arg-Arg-NH2 (Ac-EELQRR-NH2) [PEP-66] | – | 45.38%
20 | Ac-QEMQRR-NH2 [PEP-52, Ac-Gln-Glu-Met-Gln-Arg-Arg-NH2] | 2.57 | –
21 | H-EEMQRRAN-NH2 [PEP-25, H-Glu-Glu-Met-Gln-Arg-Arg-Ala-Asn-NH2] | 2.31 | –
22 | H-Glu-Glu-Met-Gln-Arg-Arg-NHC16H33 (H-EEMQRR-NHhexadecyl) [PEP-67] | – | 14.91%
